Measured values as given in patent US20150374709A1, “TETRA-SUBSTITUTED NDGA DERIVATIVES VIA ETHER BONDS AND CARBAMATE BONDS AND THEIR SYNTHESIS AND PHARMACEUTICAL USE” (ERIMOS PHARMACEUTICALS LLC, priority 2006, published 2015).

Test system: TAT-mediated transactivation of HIV transcription (HIV-1 LTR promoter)
Assay: SEAP assay of TAT-mediated transactivation (antiviral activity)
Assay type: cell-based, human immunodeficiency virus (HIV)
Conditions: Human immunodeficiency virus 1, COS-7, 48 h, read-out: SEAP EC50
Experimental: Antiviral activity is determined using a SEAP (SEcreted Alkaline Phosphatase) assay, in which cells are co-transfected with SEAP and TAT plasmids. TAT is a transactivator, human immunodeficiency virus (HIV) gene expression and is one of the two or more necessary viral regulatory factors (TAT and REV) for HIV gene expression. TAT acts iv binding to the TAR RNA element and activating transcription from the long terminal repeat (LTR) promoter. […] Previous studies have shown that TAT mediates reduction of antibody-dependent T cell proliferation, contributing substantially to the failure of the immune response. TAT also directly stimulates Kaposi's cell growth.
Since TAT has no apparent cellular homologs, this strong positive regulator has become an attractive target for the development of anti-AIDS drugs. In contrast to currently available HIV reverse transcriptase inhibitors (AZT, DDI) or potential protease inhibitors that prevent new rounds of infection, an inhibitor which suppresses viral gene TAT regulated expression of integrated proviral DNA will arrest the virus at an early stage (Hsu et al., Science 254:1799-1802, 1991). Efforts aimed at the elucidation of factors which control gene expression at transcriptional and post-transcriptional levels in host eukaryotes have recently made possible quantitative assessment of TAT function (Sim, Ann. N.Y. Acad. Sci. 616: 64-70, 1990). To screen for inhibitors for TAT regulated transactivation (TAT-TRS), the SEAP reporter gene is put under the control of HIV-1 LTR promoter in the plasmid pBC12/HIV/SEAP. The TAT-coded activity is supplied by a second plasmid construct pBC12/CMV/t2. Transient co-transfection of COS-7 cells with these two plasmids leads to secretion of alkaline phosphatase into the culture medium which is analyzed by a simple colorimetric assay (Berger et al., Gene 66: 1-10, 1988). […]
In the SEAP assay, an inhibitor should cause reduction of SEAP reporter gene expression via transactivation of the HIV-1 LTR promoter by TAT protein (TAT-TRS). […] SEAP is detected colorimetrically by the para-nitrophenyl phosphate substrate at 405 nm. […] The cells are analyzed by the MTT assay to compare cytotoxicity to SEAP inhibition. […]
COS-7 (green monkey kidney) cells were co-transfected using Fugene 6 reagent (Roche Applied Science, Cat. No. 11815091001, Indianapolis, Ind., USA) with two plasmids: pHIVSEAP (SEAP expression vector under the control of the HIV LTR promoter) and pCTAT (HIV TAT transcription factor expression vector under the control of a CMV (cytomegalovirus) promoter). After test compound treatment for 48 hours, samples were analyzed for […] at 405 nm after addition of the p-nitrophenyl phosphate substrate. The percentage of SEAP activity inhibition was calculated in relation to the placebo control.

**Q.** Which EC50 does the source give for `C[C@H](Cc1ccc(OCCCN2CCCCC2)c(OCCCN2CCCCC2)c1)[C@@H](C)Cc1ccc(OCCCN2CCCCC2)c(OCCCN2CCCCC2)c1` [Compound A, 1,4-bis{3,4-bis[3-(piperidin-1-yl)propoxy]phenyl}-2,3-dimethyl-(2R,3S)-butane] here?
**A.** 500 to 1000 nM
